PMC3833056 (The Journal of organic chemistry, 2010)

How the values were obtained:
[1] = tested on: mycobacterial α-(1,6)-mannosyltransferases; assay: In vitro PPM-dependent α-; format: biochemical, Mycobacterium smegmatis; settings: inhibitor 1.0 mM; acceptor 0.2 mM; several independent experiments
α-(1,6)-ManTs = assay: Mannosyl acceptor; format: biochemical, Mycobacterium smegmatis; settings: up to 4 mM

SMILES | inhibition of α-(1,6)-mannosyltransferase activity [1] | mannosyl acceptor activity (α-(1,6)-ManTs)
C[C@H]1O[C@H](c2cn(C[C@H]3O[C@@H](c4cn(C[C@H]5O[C@@H](c6cn(C[C@H]7O[C@@H](c8cn(C[C@H]9O[C@H](c%10cn(C[C@H]%11O[C@H](CCO)[C@@H](O)[C@@H](O)[C@@H]%11O)nn%10)[C@@H](O)[C@@H](O)[C@@H]9O)nn8)[C@@H](O)[C@@H](O)[C@@H]7O)nn6)[C@@H](O)[C@@H](O)[C@@H]5O)nn4)[C@@H](O)[C@@H](O)[C@@H]3O)nn2)[C@@H](O)[C@@H](O)[C@@H]1O [TOM-6] | ca. 95% | 
C[C@H]1O[C@H](c2cn(C[C@H]3O[C@@H](c4cn(C[C@H]5O[C@@H](c6cn(C[C@H]7O[C@@H](c8cn(C[C@H]9O[C@@H](c%10cn(C[C@H]%11O[C@@H](c%12cn(C[C@H]%13O[C@H](c%14cn(C[C@H]%15O[C@H](CCO)[C@@H](O)[C@@H](O)[C@@H]%15O)nn%14)[C@@H](O)[C@@H](O)[C@@H]%13O)nn%12)[C@@H](O)[C@@H](O)[C@@H]%11O)nn%10)[C@@H](O)[C@@H](O)[C@@H]9O)nn8)[C@@H](O)[C@@H](O)[C@@H]7O)nn6)[C@@H](O)[C@@H](O)[C@@H]5O)nn4)[C@@H](O)[C@@H](O)[C@@H]3O)nn2)[C@@H](O)[C@@H](O)[C@@H]1O [TOM-8] | ca. 95% | 
OCC[C@H]1O[C@H](Cn2cc([C@H]3O[C@H](CO)[C@@H](O)[C@H](O)[C@@H]3O)nn2)[C@@H](O)[C@H](O)[C@@H]1O [compound 31, 3,7-Anhydro-2,8-dideoxy-8-[4-(α-D-mannopyranosyl)-1H-1,2,3-triazol-1-yl]-D-glycero-D-talo-octitol] |  | poor mannosyl acceptor
